Our source for the Activity values is ChEMBL document CHEMBL1155779, “Characterization of the PON1 active site using modeling simulation, in relation to PON1 lactonase activity” (Bioorg Med Chem, 2008).

Chain of Serum paraoxonase/arylesterase 1 (Homo sapiens) (P27169 whole entry): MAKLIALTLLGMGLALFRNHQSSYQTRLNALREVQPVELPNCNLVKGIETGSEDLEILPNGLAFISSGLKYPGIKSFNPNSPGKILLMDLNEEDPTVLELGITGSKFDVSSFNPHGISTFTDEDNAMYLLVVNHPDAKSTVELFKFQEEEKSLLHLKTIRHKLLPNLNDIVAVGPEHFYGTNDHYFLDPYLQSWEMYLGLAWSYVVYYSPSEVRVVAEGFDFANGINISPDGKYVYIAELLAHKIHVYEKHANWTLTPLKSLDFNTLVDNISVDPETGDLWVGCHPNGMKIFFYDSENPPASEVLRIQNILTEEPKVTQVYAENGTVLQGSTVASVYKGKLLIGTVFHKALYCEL

This assay has as its target Serum paraoxonase/arylesterase 1 (Homo sapiens) (UniProt P27169). As to the kind of experiment: Activity at human recombinant PON1 assessed as hydrolysis of lactone ring at 1 mM by Ellman's method.
Take `O=C1C[C@H]2C=CC[C@H]2O1`: the Activity stood at 0.83 µmol/min/mg. As for `O=C1C[C@@H]2C=CC[C@@H]2O1`, the figure is 1.67 µmol/min/mg; as for `C[C@H]1CC(=O)O1`, 3.83 µmol/min/mg. As for `O=C1Cc2ccccc2O1`, the figure is 13.6 µmol/min/mg.

As to `O=C1Cc2cc(O)ccc2O1`, the Activity was 33 µmol/min/mg. As for `CC1=CCC(=O)O1`, the figure is 18.3 µmol/min/mg. As for `O=C(O)Cc1ccccc1`, the figure is 112 µmol/min/mg.
